Where two headings read alike, the source gives them in different places.
Experiments:
[1] = system: Staphylococcus aureus FDA 209P; experiment: MIC by serial dilution method on agar plate; format: cell-based
Excerpt: (§1) The microorganisms were used in a concentration of 1×10^8 cells/ml (O.D. 660 mμ, 0.07-0.16) and 1×10^6 cells/ml (100 folds dilution).

[2] = system: Staphylococcus pyrogens IID S-23; experiment: MIC by serial dilution method on agar plate; format: cell-based
Excerpt: as §1

[3] = system: Acinetobacter calcoaceticus AC-54; experiment: MIC by serial dilution method on agar plate; format: cell-based
Excerpt: (§2) Chemotherapy, 22, 1126-1128 (1974)]. The microorganisms were used in a concentration of 1×10^8 cells/ml (O.D. 660 mμ, 0.07-0.16) and 1×10^6 cells/ml (100 folds dilution).

[4] = system: Bacillus subtilis ATCC 6633; experiment: MIC by serial dilution method on agar plate; format: cell-based
Excerpt: as §2

[5] = system: Escherichia coli NIHJ JC-2; experiment: MIC by serial dilution method on agar plate; format: cell-based
Excerpt: as §2

Escherichia coli No. 29 = experiment: MIC by serial dilution method on agar plate; format: cell-based
Excerpt: as §2

[6] = system: Klebsiella pneumoniae NCTC 9632; experiment: MIC by serial dilution method on agar plate; format: cell-based
Excerpt: as §2

[7] = system: Proteus inconstans IFO 12930; experiment: MIC by serial dilution method on agar plate; format: cell-based
Excerpt: as §2

[8] = system: Proteus morganii IID Kono; experiment: MIC by serial dilution method on agar plate; format: cell-based
Excerpt: as §2

[9] = system: Pseudomonas aeruginosa ATCC 10145; experiment: MIC by serial dilution method on agar plate; format: cell-based
Excerpt: as §2

[10] = system: Pseudomonas aeruginosa E-2; experiment: MIC by serial dilution method on agar plate; format: cell-based
Excerpt: as §2

[11] = system: Serratia marcescens IFO 12648; experiment: MIC by serial dilution method on agar plate; format: cell-based
Excerpt: as §2

[12] = system: Streptococcus faecalis IFO 12580; experiment: MIC by serial dilution method on agar plate; format: cell-based
Excerpt: as §2

[13] = Absorption by oral administration in monkey (plasma concentration, thin layer cup bio-assay); format: in vivo; conditions: 10 mg/kg;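 also: plasma concentration in γ/ml (µg/mL) rather than the printed ng/mL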
Experimental: The test compounds were dissolved in 0.1N hydrochloric acid or suspended in 0.5% sodium carboxymethyl cellulose solution. The solution or suspension was administered into stomach of monkey (two monkeys) with cathetel. After the administration of test compounds, the blood was collected from the lower limbs vein at a fixed interval with a syringe treated with heparin. The collected blood was centrifuged at 3,000 r.p.m. for 10 minutes to separate the plasma. The concentration of the test compound was measured by a thin layer cup method (a bio-assay), wherein Bacillus subtilis ATCC 6633 was used as a bacteria for determination. Based on a standard curve, the concentration of test compound in plasma was calculated.

minimum inhibitory concentration (MIC) ([1]; 1 × 10^6 cells/ml): < 0.048
minimum inhibitory concentration (MIC) ([1]; 1 × 10^8 cells/ml): < 0.048
minimum inhibitory concentration (MIC) ([2]; 1 × 10^6 cells/ml): 0.39
minimum inhibitory concentration (MIC) ([2]; 1 × 10^8 cells/ml): 0.781
minimum inhibitory concentration (MIC) ([3]; 1 × 10^6 cells/ml): < 0.048
minimum inhibitory concentration (MIC) ([3]; 1 × 10^8 cells/ml): 0.097
minimum inhibitory concentration (MIC) ([4]; 1 × 10^6 cells/ml): < 0.048
minimum inhibitory concentration (MIC) ([4]; 1 × 10^8 cells/ml): < 0.048
minimum inhibitory concentration (MIC) ([5]; 1 × 10^6 cells/ml): < 0.048
minimum inhibitory concentration (MIC) ([5]; 1 × 10^8 cells/ml): < 0.048
minimum inhibitory concentration (MIC) (Escherichia coli No. 29; 1 × 10^6 cells/ml): < 0.048
minimum inhibitory concentration (MIC) (Escherichia coli No. 29; 1 × 10^8 cells/ml): < 0.048
minimum inhibitory concentration (MIC) ([6]; 1 × 10^6 cells/ml): < 0.048
minimum inhibitory concentration (MIC) ([6]; 1 × 10^8 cells/ml): < 0.048
minimum inhibitory concentration (MIC) ([7]; 1 × 10^6 cells/ml): 0.097
minimum inhibitory concentration (MIC) ([7]; 1 × 10^8 cells/ml): 0.195
minimum inhibitory concentration (MIC) ([8]; 1 × 10^6 cells/ml): < 0.048
minimum inhibitory concentration (MIC) ([8]; 1 × 10^8 cells/ml): 0.097
minimum inhibitory concentration (MIC) ([9]; 1 × 10^6 cells/ml): 0.195
minimum inhibitory concentration (MIC) ([9]; 1 × 10^8 cells/ml): 0.39
minimum inhibitory concentration (MIC) ([10]; 1 × 10^6 cells/ml): 0.097
minimum inhibitory concentration (MIC) ([10]; 1 × 10^8 cells/ml): 0.195
minimum inhibitory concentration (MIC) ([11]; 1 × 10^6 cells/ml): < 0.048
minimum inhibitory concentration (MIC) ([11]; 1 × 10^8 cells/ml): < 0.048
minimum inhibitory concentration (MIC) ([12]; 1 × 10^6 cells/ml): 0.097
minimum inhibitory concentration (MIC) ([12]; 1 × 10^8 cells/ml): 0.195
concentration at 0.5 h ([13]; Run 1, 0.5 hour, read-out: Amount of test compd. in plasma): 2350 ng/mL
concentration at 1 h ([13]; Run 1, 1 hour, read-out: Amount of test compd. in plasma): 4260 ng/mL
concentration at 2 h ([13]; Run 1, 2 hour, read-out: Amount of test compd. in plasma): 1940 ng/mL
concentration at 4 h ([13]; Run 1, 4 hour, read-out: Amount of test compd. in plasma): 720 ng/mL
concentration at 7 h ([13]; Run 1, 7 hour, read-out: Amount of test compd. in plasma): < 200 ng/mL
concentration at 24 h ([13]; Run 1, 24 hour, read-out: Amount of test compd. in plasma): < 200 ng/mL
concentration at 0.5 h ([13]; Run 2, 0.5 hour, read-out: Amount of test compd. in plasma): < 200 ng/mL
concentration at 1 h ([13]; Run 2, 1 hour, read-out: Amount of test compd. in plasma): 2180 ng/mL
concentration at 2 h ([13]; Run 2, 2 hour, read-out: Amount of test compd. in plasma): 1120 ng/mL
concentration at 4 h ([13]; Run 2, 4 hour, read-out: Amount of test compd. in plasma): 1120 ng/mL
concentration at 7 h ([13]; Run 2, 7 hour, read-out: Amount of test compd. in plasma): < 200 ng/mL
concentration at 24 h ([13]; Run 2, 24 hour, read-out: Amount of test compd. in plasma): < 200 ng/mL
concentration at 0.5 h ([13]; average of two runs, 0.5 hour, read-out: Amount of test compd. in plasma, Average): < 1370 ng/mL
concentration at 1 h ([13]; average of two runs, 1 hour, read-out: Amount of test compd. in plasma, Average): 3220 ng/mL
concentration at 2 h ([13]; average of two runs, 2 hour, read-out: Amount of test compd. in plasma, Average): 1530 ng/mL
concentration at 4 h ([13]; average of two runs, 4 hour, read-out: Amount of test compd. in plasma, Average): 920 ng/mL
concentration at 7 h ([13]; average of two runs, 7 hour, read-out: Amount of test compd. in plasma, Average): < 390 ng/mL
concentration at 24 h ([13]; average of two runs, 24 hour, read-out: Amount of test compd. in plasma, Average): < 390 ng/mL
SMILES: CN1CCN(c2c(F)cc3c(=O)c(C(=O)O)cn(-c4ccc(O)cc4)c3c2F)CC1 [Test Compd. No. 1, 6,8-Difluoro-1-(4-hydroxyphenyl)-7-(4-methyl-1-piperazinyl)-1,4-dihydro-4-oxoquinoline-3-carboxylic acid]

— patent US4755513A, “Antimicrobial 1-substituted phenyl-4-oxoquinoline-3-carboxylic acid compounds” (Otsuka Pharmaceutical Company, Limited, priority 1985, dated 1988)
